Laboratory results: patent US12398120B2, “Substituted hydantoinamides as ADAMTS7 antagonists” (BAYER AKTIENGESELLSCHAFT, priority 2019, dated 2025)

These compounds were tested against ADAMTS4 (Homo sapiens (Human), UniProt O75173) (assay: Selectivity assay for ADAMTS-7 modulators: ADAMTS4 (FRET substrate)). Conditions: ADAMTS4 (R&D 4307-AD) 50 nM, substrate Dabcyl-EEVKAKVQPY-Glu(Edans)-NH2 1 μM, 120 min, 32° C.
Type: biochemical
Procedure, shortened: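 Activity read as rising fluorescence after a FRET substrate is cleaved by human ADAMTS4, with reactions started by substrate addition to wells holding compound or DMSO. Percent inhibition plotted against concentration gave IC50.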

ADAMTS4, sequence (O75173 213-685): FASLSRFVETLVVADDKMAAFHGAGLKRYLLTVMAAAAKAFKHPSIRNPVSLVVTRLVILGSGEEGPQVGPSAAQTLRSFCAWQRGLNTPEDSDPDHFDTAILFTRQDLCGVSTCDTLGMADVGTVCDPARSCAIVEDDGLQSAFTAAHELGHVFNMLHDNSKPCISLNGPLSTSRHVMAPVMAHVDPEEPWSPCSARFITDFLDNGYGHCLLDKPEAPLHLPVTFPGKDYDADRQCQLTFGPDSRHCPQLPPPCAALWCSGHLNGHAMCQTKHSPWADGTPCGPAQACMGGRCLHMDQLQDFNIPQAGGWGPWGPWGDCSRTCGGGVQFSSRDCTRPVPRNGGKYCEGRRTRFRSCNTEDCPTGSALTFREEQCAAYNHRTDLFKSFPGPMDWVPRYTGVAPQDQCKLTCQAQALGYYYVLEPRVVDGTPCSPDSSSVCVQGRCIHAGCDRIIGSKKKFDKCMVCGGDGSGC

Q: With `CC1(CNC(=O)c2ccccc2-c2ccc(C(F)(F)F)cc2)NC(=O)NC1=O` (stereo not drawn) [Example 96, Ent-N-[(4-Methyl-2,5-Dioxoimidazolidin-4-Yl)Methyl]-4′-(Trifluoromethyl)[Biphenyl]-2-Carboxamide] as the compound, how does the IC50 read?
A: Its IC50 is 46 µM.

Q: For `Cc1ccc(-c2cc(C(F)(F)F)ccc2C(=O)NC[C@@]2(C3CC3)NC(=O)NC2=O)cc1` [Example 99, N-{[(4R)-4-Cyclopropyl-2,5-Dioxoimidazolidin-4-Yl]Methyl}-4′-Methyl-5-(Trifluoromethyl)[Biphenyl]-2-Carboxamide], which IC50 is on record?
A: The IC50 was 4.5 µM.

Q: How did the IC50 turn out when `Cc1ccc(-c2c(C)cccc2C(=O)NC[C@@]2(C3CC3)NC(=O)NC2=O)cc1` [Example 101, N-{[(4R)-4-Cyclopropyl-2,5-Dioxoimidazolidin-4-Yl]Methyl}-4′,6-Dimethyl[Biphenyl]-2-Carboxamide] was run?
A: Its IC50 is 3.2 µM.

Q: With `CCC(F)(F)c1ccc(-c2ccccc2C(=O)NC[C@@]2(C3CC3)NC(=O)NC2=O)cc1` [Example 102, N-{[(4R)-4-Cyclopropyl-2,5-Dioxoimidazolidin-4-Yl]Methyl}-4′-(1,1-Difluoropropyl)[Biphenyl]-2-Carboxamide] as the compound, how does the IC50 read?
A: The IC50 was 6.6 µM.

Q: `COc1ccc(C(=O)NC[C@@]2(C3CC3)NC(=O)NC2=O)c(-c2ccc(C3CC3)cc2)c1` [Example 103, 4′-Cyclopropyl-N-{[(4R)-4-Cyclopropyl-2,5-Dioxoimidazolidin-4-Yl]Methyl}-5-Methoxy[Biphenyl]-2-Carboxamide] was tested. Which IC50 did it give?
A: The IC50 was 7.1 µM.

Q: How did the IC50 turn out when `O=C1NC(=O)[C@](CNC(=O)c2ccc(F)cc2-c2ccc(C3CC3)cc2)(C2CC2)N1` [Example 104, 4′-Cyclopropyl-N-{[(4R)-4-Cyclopropyl-2,5-Dioxoimidazolidin-4-Yl]Methyl}-5-Fluoro[Biphenyl]-2-Carboxamide] was run?
A: The IC50 was 8.7 µM.

Q: With `O=C1NC(=O)[C@](CNC(=O)c2ccccc2-c2ccc(C3CC3)cc2)(C2CC2)N1` [Example 105, 4′-Cyclopropyl-N-{[(4R)-4-Cyclopropyl-2,5-Dioxoimidazolidin-4-Yl]Methyl}[Biphenyl]-2-Carboxamide] as the compound, how does the IC50 read?
A: The IC50 was 4.9 µM.

Q: With `CCc1ccc(-c2ccccc2C(=O)NC[C@@]2(C3CC3)NC(=O)NC2=O)cc1` [Example 106, N-{[(4R)-4-Cyclopropyl-2,5-Dioxoimidazolidin-4-Yl]Methyl}-4′-Ethyl[Biphenyl]-2-Carboxamide] as the compound, how does the IC50 read?
A: Its IC50 is 5.4 µM.

Q: How did the IC50 turn out when `COc1ccc(C(=O)NC[C@@]2(C3CC3)NC(=O)NC2=O)c(-c2ccc(C(F)(F)F)cc2)c1` [Example 107, N-{[(4R)-4-Cyclopropyl-2,5-Dioxoimidazolidin-4-Yl]Methyl}-5-Methoxy-4′-(Trifluoromethyl)[Biphenyl]-2-Carboxamide] was run?
A: Its IC50 is 6.2 µM.

Q: For `O=C1NC(=O)[C@](CNC(=O)c2ccc(C(F)(F)F)cc2-c2ccc(C3CC3)cc2)(C2CC2)N1` [Example 108, 4′-Cyclopropyl-N-{[(4R)-4-Cyclopropyl-2,5-Dioxoimidazolidin-4-Yl]Methyl}-5-(Trifluoromethyl)[Biphenyl]-2-Carboxamide], which IC50 is on record?
A: The IC50 was 19 µM.

Q: How did the IC50 turn out when `Cc1cccc(C(=O)NC[C@@]2(C3CC3)NC(=O)NC2=O)c1-c1ccc(C(F)(F)F)cc1` [Example 109, N-{[(4R)-4-Cyclopropyl-2,5-Dioxoimidazolidin-4-Yl]Methyl}-6-Methyl-4′-(Trifluoromethyl)[Biphenyl]-2-Carboxamide] was run?
A: The IC50 was 8.7 µM.

Q: For `CCc1ccc(-c2cc(F)ccc2C(=O)NC[C@@]2(C3CC3)NC(=O)NC2=O)cc1` [Example 110, N-{[(4R)-4-Cyclopropyl-2,5-Dioxoimidazolidin-4-Yl]Methyl}-4′-Ethyl-5-Fluoro[Biphenyl]-2-Carboxamide], which IC50 is on record?
A: The IC50 was 7.9 µM.

Q: With `O=C1NC(=O)[C@](CNC(=O)c2ccccc2-c2ccc(C3CC3(F)F)cc2)(C2CC2)N1` (stereo partly drawn) [Example 111, N-{[(4R)-4-Cyclopropyl-2,5-Dioxoimidazolidin-4-Yl]Methyl}-4′-(2,2-Difluorocyclopropyl)[Biphenyl]-2-Carboxamide] as the compound, how does the IC50 read?
A: Its IC50 is 7.9 µM.

Q: Which IC50 does the source give for `O=C1NC(=O)[C@](CNC(=O)c2ccccc2-c2ccc(C3CCC3)cc2)(C2CC2)N1` [Example 112, 4′-Cyclobutyl-N-{[(4R)-4-Cyclopropyl-2,5-Dioxoimidazolidin-4-Yl]Methyl}[Biphenyl]-2-Carboxamide] here?
A: The IC50 was 2.2 µM.

Q: With `CC(C)(C)c1ccc(-c2ccccc2C(=O)NC[C@@]2(C3CC3)NC(=O)NC2=O)cc1` [Example 113, 4′-Tert-Butyl-N-{[(4R)-4-Cyclopropyl-2,5-Dioxoimidazolidin-4-Yl]Methyl}[Biphenyl]-2-Carboxamide] as the compound, how does the IC50 read?
A: Its IC50 is 12 µM.

Q: For `O=C1NC(=O)[C@](CNC(=O)c2ccccc2-c2ccc(C(F)(F)F)cc2)(C2CC2)N1` [Example 114, N-{[(4R)-4-Cyclopropyl-2,5-Dioxoimidazolidin-4-Yl]Methyl}-4′-(Trifluoromethyl)[Biphenyl]-2-Carboxamide], which IC50 is on record?
A: The IC50 was 10.2 µM.

Q: Which IC50 does the source give for `O=C1NC(=O)[C@](CNC(=O)c2ccccc2-c2ccc(C3(C(F)(F)F)CC3)cc2)(C2CC2)N1` [Example 115, N-{[(4R)-4-Cyclopropyl-2,5-Dioxoimidazolidin-4-Yl]Methyl}-4′-[1-(Trifluoromethyl)Cyclopropyl][Biphenyl]-2-Carboxamide] here?
A: The IC50 was 7.8 µM.

Q: With `O=C1NC(=O)[C@](CNC(=O)c2ccc(F)cc2-c2ccc(C(F)(F)F)cc2)(C2CC2)N1` [Example 116, N-{[(4R)-4-Cyclopropyl-2,5-Dioxoimidazolidin-4-Yl]Methyl}-5-Fluoro-4′-(Trifluoromethyl)[Biphenyl]-2-Carboxamide] as the compound, how does the IC50 read?
A: Its IC50 is 12 µM.

Q: For `O=C1NC(=O)[C@](CNC(=O)c2ccc(C(F)(F)F)cc2-c2ccc(C(F)(F)F)cc2)(C2CC2)N1` [Example 117, N-{[(4R)-4-Cyclopropyl-2,5-Dioxoimidazolidin-4-Yl]Methyl}-4′,5-Bis(Trifluoromethyl)[Biphenyl]-2-Carboxamide], which IC50 is on record?
A: Its IC50 is 61 µM.

Q: Which IC50 does the source give for `CC(C)c1ccc(-c2ccccc2C(=O)NC[C@@]2(C3CC3)NC(=O)NC2=O)cc1` [Example 118, N-{[(4R)-4-Cyclopropyl-2,5-Dioxoimidazolidin-4-Yl]Methyl}-4′-Isopropyl[Biphenyl]-2-Carboxamide] here?
A: The IC50 was 7.6 µM.

Q: With `O=C1NC(=O)[C@](CNC(=O)c2ccccc2-c2ccc(CC(F)(F)F)cc2)(C2CC2)N1` [Example 119, N-{[(4R)-4-Cyclopropyl-2,5-Dioxoimidazolidin-4-Yl]Methyl}-4′-(2,2,2-Trifluoroethyl)[Biphenyl]-2-Carboxamide] as the compound, how does the IC50 read?
A: The IC50 was 9.1 µM.

Q: Which IC50 does the source give for `CC(C)(c1ccc(-c2ccccc2C(=O)NC[C@@]2(C3CC3)NC(=O)NC2=O)cc1)C(F)(F)F` [Example 120, N-{[(4R)-4-Cyclopropyl-2,5-Dioxoimidazolidin-4-Yl]Methyl}-4′-(1,1,1-Trifluoro-2-Methylpropan-2-Yl)[Biphenyl]-2-Carboxamide] here?
A: Its IC50 is 35 µM.

Q: With `O=C1NC(=O)[C@](CNC(=O)c2cc(F)ccc2-c2ccc(C(F)(F)F)cc2)(C2CC2)N1` [Example 121, N-{[(4R)-4-Cyclopropyl-2,5-Dioxoimidazolidin-4-Yl]Methyl}-4-Fluoro-4′-(Trifluoromethyl)[Biphenyl]-2-Carboxamide] as the compound, how does the IC50 read?
A: The IC50 was 5.9 µM.

Q: `O=C1NC(=O)[C@](CNC(=O)c2ccccc2-c2ccc(C(F)F)cc2)(C2CC2)N1` [Example 122, N-{[(4R)-4-Cyclopropyl-2,5-Dioxoimidazolidin-4-Yl]Methyl}-4′-(Difluoromethyl)[Biphenyl]-2-Carboxamide] was tested. Which IC50 did it give?
A: Its IC50 is 7.9 µM.

Q: Which IC50 does the source give for `CC(C)(C#N)c1ccc(-c2ccccc2C(=O)NC[C@@]2(C3CC3)NC(=O)NC2=O)cc1` [Example 123, 4′-(2-Cyanopropan-2-Yl)-N-{[(4R)-4-Cyclopropyl-2,5-Dioxoimidazolidin-4-Yl]Methyl}[Biphenyl]-2-Carboxamide] here?
A: The IC50 was 19 µM.
